Measured values as given in patent US7300770B2, “Detection of microbe contamination on elastomeric articles” (Kimberly-Clark Worldwide, Inc., priority 2004, dated 2007).

How the values were obtained:
[1] = Acid-base reversibility of dye color on towel
Rhinovirus = test: Virus detection on Reichardt's dye-coated stickers; settings: virus diluted serially in saline; 50 microliters, 3 minutes
[2] = system: juice from the aged chicken (high bacterial levels); test: Isopropanol dye spray on doorknob marked with aged chicken juice; settings: 160 mg dye in 10 mL isopropanol, sprayed
Excerpt: Plastic doorknobs were utilized as a “real world” surface on which to test bacterial contamination. A raw chicken leg was initially aged at room temperature for several days to ensure high bacterial levels (referred to hereinafter as “aged chicken”). Juice from the aged chicken was then used to mark the surface of one of the knobs. The other door knob was left uncontaminated as a control. Both knobs were wiped. […] The isopropanol solution of the dye was sprayed on both surfaces.

vaginal fluid samples = test: Dye-coated stickers tested with vaginal fluid samples
Description: A sticker of each concentration was tested with normal, BV positive/pH positive, and BV negative/pH positive vaginal fluid samples. […] The three states of color change were easily distinguishable.

S. aureus = test: Titration of microorganisms with Reichardt's dye on cellulosic towel; set-up: species or system Staphylococcus aureus; settings: Gram(+), 10^7 CFU/mL, 100 microliters

## [O-]c1c(-c2ccccc2)cc(-[n+]2c(-c3ccccc3)cc(-c3ccccc3)cc2-c2ccccc2)cc1-c1ccccc1 [Reichardt's dye, 4-(2,4,6-triphenylpyridinium-1-yl)-2,6-diphenylphenolate]
[1]; after acetic acid or pH 2.0 buffer
  Effect of 1 N NaOH on the changed spots: rapid re-colorization
[1]; dried dye spots on towel
  Color change with acetic acid and pH 2.0 buffer: rapid color change
Rhinovirus
  Ten-fold dilution down to which stickers changed color: 10^−6
[2]
  Color change at contaminated area of doorknob: blue to colorless
Vaginal fluid samples; BV negative/pH positive sample
  Color change of dye-coated sticker: only faintly changed the color
Vaginal fluid samples; BV positive/pH positive sample
  Color change of dye-coated sticker: next sharpest color change
Vaginal fluid samples; normal vaginal fluid
  Color change of dye-coated sticker: sharpest color change
S. aureus
  Amount of Dye Required for Persistent Color: 90 µL
